Experimental data published in patent publication US20260256923A1, “NEW RECRUITMENT ELEMENT OF UBIQUITIN LIGASE AND USE THEREOF” (SHENZHEN LINGGENE BIOTECH CO., LTD., priority 2023, published 2026).

Columns and labels:
MDM2 [1] = target: T1, MDM2 (Homo sapiens, UniProt P19338+Q00987); assay: MDM2 protein degradation in A549 non-small cell lung cancer cells, western blot; format: cell-based; conditions: A549, 200 nM, 3 h
T1 construct: endogenous in cells; host or cells: A549
Experimental: (1) A549 non-small cell lung cancer cells were incubated with 200 nM AS1411-VH032, and corresponding cell samples were collected at time gradients of 0 h, 3 h, 6 h, 9 h, 12 h, and 24 h for protein extraction and subsequent western blot assay to detect protein degradation.
(2) A549 non-small cell lung cancer cells were incubated with AS1411-VH032 at concentrations of 0 nM, 50 nM, 100 nM, 150 nM, 200 nM, and 250 nM. After 3 h, cell samples were collected for protein extraction and subsequent western blot assay to detect protein degradation.
(3) A549 non-small cell lung cancer cells were incubated with 200 nM AS1411, VH032, AS1411-VH032, or AS1411+VH032. After 3 h, cell samples were collected for protein extraction and subsequent western blot assay to detect protein degradation.
(4) A549 non-small cell lung cancer cells were incubated with 200 nM AS1411-VH032 for 3 h, and proteasome inhibitor MG132 was added. Cell samples were collected for protein extraction and subsequent western blot assay.
(5) A549 non-small cell lung cancer cells were transfected with si-NC or si-NCL and subsequently incubated with 200 nM AS1411-VH032 for 3 h. Cell samples were collected for protein extraction and subsequent western blot assay.
(1) A549 non-small cell lung cancer cells were incubated with 1000 nM AS1411-AS1411, and corresponding cell samples were collected at time gradients of 0 h, 3 h, 6 h, 9 h, 12 h, and 24 h for protein extraction and subsequent western blot assay to detect protein degradation.
(2) A549 non-small cell lung cancer cells were incubated with AS1411-AS1411 at concentrations of 0 nM, 50 nM, 100 nM, 250 nM, 500 nM, and 1000 nM. After 12 h, cell samples were collected for protein extraction and subsequent western blot assay to detect protein degradation.
(3) A549 non-small cell lung cancer cells were incubated with 1000 nM AS1411, AS1411-AS1411, or AS1411+AS1411. After 12 h, cell samples were collected for protein extraction and subsequent western blot assay to detect protein degradation. […]

[2] = tested on: MCF 10A human normal mammary epithelial cells; assay: Toxicity to normal cells, cell apoptosis proportion by flow cytometer; format: cell-based; conditions: 0-5000 nM, 4 days, medium renewed every day
Experimental: The toxicity of AS1411 to normal cells was compared with that of the small molecule ligand nutlin-3a of MDM2 to normal cells. AS1411 or nutlin-3a at different concentrations (0 nM, 500 nM, 1000 nM, and 5000 nM) was incubated with MCF 10A human normal mammary epithelial cells for 4 days, and the medium containing the respective concentrations of AS1411 or nutlin-3a was renewed every day. The cell apoptosis proportion was detected using a flow cytometer.

NCL [3] = target: T2, NCL (Homo sapiens, UniProt P19338); assay: Biotin-oligonucleotide pull-down with recombinant proteins (NCL); format: binding; design: purchased ACROBiosystems (NCL); R&D Systems (MDM2) NUL-H5253 (NCL); E3-202-050 (MDM2); conditions: 400 nM 5′-biotin label, 6 μg/mL NCL + 6 μg/mL MDM2
Experimental: (§1) 6 μg/mL recombinant human NCL and 6 μg/mL recombinant human MDM2 were mixed well and incubated at 4° C. for 7 h. Subsequently, 400 nM CRO, AS1411, or iSN04 labeled by biotin at the 5′ end was added, and the mixture was incubated at 4° C. for 6 h. Streptavidin agarose gel beads (purchased from cytiva, Cat. No.: 17511301) were added, and the mixture was further incubated at 4° C. overnight. The gel beads were washed 4 times with a TBST buffer, and an SDS-PAGE protein loading buffer (purchased from Beyotime, Cat. No.: P0015) was added. The mixture was heated to 100° C. and held for 10 min. After centrifugation, the supernatant was collected. The pull-down product was then detected by western blot assay.

MDM2 [4] = target: T3, MDM2 (Homo sapiens, UniProt Q00987); assay: Biotin-oligonucleotide pull-down with recombinant proteins (MDM2); format: binding; design: purchased R&D Systems (MDM2); ACROBiosystems (NCL) E3-202-050 (MDM2); NUL-H5253 (NCL); conditions: 400 nM 5′-biotin label, 6 μg/mL NCL + 6 μg/mL MDM2
Experimental: as §1
Target sequence in this assay (P19338 whole entry partner): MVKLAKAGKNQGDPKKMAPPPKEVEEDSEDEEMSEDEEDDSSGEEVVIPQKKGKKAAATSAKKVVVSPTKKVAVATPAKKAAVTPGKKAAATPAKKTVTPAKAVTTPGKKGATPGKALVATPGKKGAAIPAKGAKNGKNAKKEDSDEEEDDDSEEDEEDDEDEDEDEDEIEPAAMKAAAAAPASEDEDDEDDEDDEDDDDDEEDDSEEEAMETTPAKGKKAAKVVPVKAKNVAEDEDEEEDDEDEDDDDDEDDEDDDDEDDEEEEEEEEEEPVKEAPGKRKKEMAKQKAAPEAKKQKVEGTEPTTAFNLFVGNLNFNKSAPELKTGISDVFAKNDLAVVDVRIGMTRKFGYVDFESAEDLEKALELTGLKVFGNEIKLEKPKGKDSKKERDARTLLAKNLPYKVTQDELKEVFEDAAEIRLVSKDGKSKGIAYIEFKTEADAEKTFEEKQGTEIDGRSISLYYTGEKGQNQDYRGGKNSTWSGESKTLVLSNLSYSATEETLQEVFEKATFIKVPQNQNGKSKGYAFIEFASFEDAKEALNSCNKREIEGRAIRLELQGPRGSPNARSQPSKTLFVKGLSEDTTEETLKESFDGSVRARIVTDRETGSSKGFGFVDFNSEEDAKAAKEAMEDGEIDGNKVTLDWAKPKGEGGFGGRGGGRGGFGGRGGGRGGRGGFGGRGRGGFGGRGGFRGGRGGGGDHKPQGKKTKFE
Target sequence in this assay (Q00987 whole entry): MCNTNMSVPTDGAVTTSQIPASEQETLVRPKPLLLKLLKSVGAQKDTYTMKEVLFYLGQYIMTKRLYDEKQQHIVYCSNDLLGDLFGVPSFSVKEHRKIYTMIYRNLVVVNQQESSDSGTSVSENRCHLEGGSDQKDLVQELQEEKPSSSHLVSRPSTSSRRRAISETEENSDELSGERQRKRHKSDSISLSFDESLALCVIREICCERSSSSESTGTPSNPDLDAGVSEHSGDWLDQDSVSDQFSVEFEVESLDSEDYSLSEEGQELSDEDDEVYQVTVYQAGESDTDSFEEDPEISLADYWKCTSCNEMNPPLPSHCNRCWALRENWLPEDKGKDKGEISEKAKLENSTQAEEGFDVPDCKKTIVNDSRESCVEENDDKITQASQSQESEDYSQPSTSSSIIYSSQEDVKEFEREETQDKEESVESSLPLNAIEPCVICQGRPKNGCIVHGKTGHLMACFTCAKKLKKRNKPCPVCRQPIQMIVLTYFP

MDM2 [5] = target: T3, MDM2; assay: Biotin-oligonucleotide pull-down from HeLa cell lysate, western blot (MDM2); format: binding; design: HeLa cervical cancer cells were lysed with an IP lysis solution; endogenous in cells; host or cells: HeLa; conditions: 5′-biotin label, 0 nM-20 μM
Experimental: (§2) HeLa cervical cancer cells were lysed with an IP lysis solution (purchased from Thermo Scientific, Cat. No.: 87788) and then incubated with a CRO (cytosine-rich oligonucleotide, negative control, SEQ ID NO: 13), AS1411, or iSN04 labeled by biotin at the 5′ end at different concentrations (0 nM, 200 nM, 500 nM, 1 μM, 5 μM, 10 μM, and 20 μM) at 4° C. for 6h. Subsequently, streptavidin agarose gel beads (purchased from cytiva, Cat. No.: 17511301) were added, and the mixture was further incubated at 4° C. overnight. After the bound biotin-labeled CRO, AS411, or iSN04 and its captured proteins on the gel beads were washed multiple times with an IP lysis buffer (purchased from Thermo Scientific, Cat. No.: 87788), an SDS-PAGE protein loading buffer (purchased from Beyotime, Cat. No.: P0015) was added, and the mixture was heated to 100° C. and held for 10 min. After centrifugation, the supernatant was collected as a pull-down product. The pull-down product was detected by western blot assay.
Target sequence in this assay (P19338 2-710 partner limits assumed): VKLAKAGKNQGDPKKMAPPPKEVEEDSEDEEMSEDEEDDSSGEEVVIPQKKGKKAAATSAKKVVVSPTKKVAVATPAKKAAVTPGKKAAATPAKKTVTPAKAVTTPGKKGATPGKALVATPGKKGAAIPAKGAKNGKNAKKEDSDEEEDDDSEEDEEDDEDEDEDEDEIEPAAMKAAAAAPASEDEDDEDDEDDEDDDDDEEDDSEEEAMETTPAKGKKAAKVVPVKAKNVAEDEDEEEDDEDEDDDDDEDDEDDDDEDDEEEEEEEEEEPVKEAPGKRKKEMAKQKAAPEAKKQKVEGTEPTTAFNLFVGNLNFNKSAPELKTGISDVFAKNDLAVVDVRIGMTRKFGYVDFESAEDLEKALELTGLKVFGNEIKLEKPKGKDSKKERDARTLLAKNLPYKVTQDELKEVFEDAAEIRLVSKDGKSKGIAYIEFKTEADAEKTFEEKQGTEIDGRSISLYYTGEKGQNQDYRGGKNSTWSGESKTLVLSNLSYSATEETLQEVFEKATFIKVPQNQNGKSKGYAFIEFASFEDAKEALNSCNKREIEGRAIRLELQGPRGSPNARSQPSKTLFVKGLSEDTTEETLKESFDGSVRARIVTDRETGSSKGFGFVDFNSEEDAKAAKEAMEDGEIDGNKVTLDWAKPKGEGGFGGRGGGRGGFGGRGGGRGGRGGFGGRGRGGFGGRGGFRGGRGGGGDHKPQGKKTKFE
Target sequence in this assay (Q00987 whole entry): as the sequence (Q00987 whole entry) above

NCL [6] = target: T2, NCL; assay: Biotin-oligonucleotide pull-down from HeLa cell lysate, western blot (NCL); format: binding; design: HeLa cervical cancer cells were lysed with an IP lysis solution; endogenous in cells; host or cells: HeLa cell lysate; conditions: 5′-biotin label, 0 nM-20 μM
Experimental: as §2

[7] = target: T4, interaction between NCL and MDM2 (Homo sapiens, UniProt P19338); assay: Co-immunoprecipitation of NCL and MDM2 from HeLa cell lysate, western blot; format: binding; conditions: 0-20 μM, 4° C. 6 h, IP with antibody against NCL
T4 construct: HeLa cervical cancer cells were lysed with an IP lysis solution; endogenous in cells; host or cells: HeLa cell lysate
Experimental: Co-immunoprecipitation (Co-IP) is a classical method for the study of protein interactions based on the specific interaction between an antibody and an antigen. It is an effective method to determine the physiological interaction between two proteins in intact cells.
HeLa cervical cancer cells were lysed with an IP lysis solution (purchased from Thermo Scientific, Cat. No.: 87788) and then incubated with AS 1411 or iSN04 at different concentrations (0 μM, 1 μM, 5 μM, 10 μM, and 20 μM) at 4° C. for 6 h. Subsequently, […] of an antibody against NCL was added, and the mixture was further incubated at 4° C. overnight. Protein A/G magnetic beads (purchased from Thermo Scientific, Cat. No.: 88802) were added, and the mixture was incubated with rotation at room temperature for 1.5 h. The bound NCL and its interacting proteins on the magnetic beads were washed with an IP lysis buffer (purchased from Thermo Scientific, Cat. No.: 87788), and an SDS-PAGE protein loading buffer (purchased from Beyotime, Cat. No.: P0015) was added. The mixture was heated to 100° C. and held for 10 min. The magnetic beads were adsorbed on a magnetic rack, and the supernatant was transferred into a new tube. Subsequently, western blot assay was performed to detect whether NCL bound to MDM2 and whether the binding was affected by AS 1411 or iSN04. […]

[8] = G4 structural characteristics, N-methyl mesoporphyrin IX (NMM) fluorescent probe; format: physicochemical; conditions: 1 μM NMM
Experimental: Both AS1411 and iSN04 are oligonucleotides specifically binding to NCL. The sequence of AS1411 is SEQ ID NO: 1, and the sequence of iSN04 is SEQ ID NO: 14. AS1411 contains a plurality of GGT motifs, and iSN04 contains one GGT motif. Whether AS1411 and iSN04 have stable G4 structural characteristics was determined. The experimental process was as follows: 5 μM NC (negative control, SEQ ID NO: 15), AS1411, or iSN04 was added to water, and the total volume was 100 μL. The mixture was heated at 95° C. for 7 min and then immediately incubated on ice for 3 min, followed by the addition of 2 μL of N-methyl mesoporphyrin IX (NMM) (purchased from MCE, Cat. No.: HY-133821) to make a final concentration of 1 μM. The resulting mixture was incubated at room temperature for 1 h in the dark. The fluorescence intensity was detected by a microplate reader, with an emission wavelength of 550-700 nm and an excitation wavelength of […].
Guanine-rich DNA sequences can form more distinct G4 structural characteristics in the presence of metal ions (usually sodium and potassium ions). 5 μM NC (negative control, SEQ ID NO: 15), AS1411, or iSN04 was added to a 100 mM K^+ solution, and the total volume was 100 μL. The mixture was well mixed, heated at 95° C. for 7 min, and then immediately incubated on ice for 3 min, followed by the addition of 2 μL of N-methyl mesoporphyrin IX (NMM) (purchased from MCE, Cat. No.: HY-133821) to make a final concentration of 1 μM. The resulting mixture was incubated at room temperature for 1 h in the dark. The fluorescence intensity was detected by a microplate reader, with an emission wavelength of 550-700 nm and an excitation wavelength of […].

T2 sequence (P19338 whole entry): as the sequence (P19338 whole entry partner) above
T4 sequence (P19338 2-710 limits assumed): as the sequence (P19338 2-710 partner limits assumed) above
T1 sequence (Q00987 whole entry): as the sequence (Q00987 whole entry) above
T1 sequence (P19338 2-710 limits assumed): as the sequence (P19338 2-710 partner limits assumed) above

| Compound | protein level of MDM2 (MDM2 [1]) | toxicity to normal cells (cell apoptosis proportion) [2] | binding to NCL (NCL [3]) | binding / recruitment of MDM2 (MDM2 [4]) | capture of MDM2 (MDM2 [5]) | capture of NCL (NCL [6]) | effect on the interaction between NCL and MDM2 [7] | G4 structural characteristics (fluorescence signal intensity) ([8]; 5 μM in 100 mM K+ solution) | G4 structural characteristics (fluorescence signal intensity) ([8]; 5 μM in water (no K+)) |
| --- | --- | --- | --- | --- | --- | --- | --- | --- | --- |
| CC(=O)N[C@H](C(=O)N1C[C@H](O)C[C@H]1C(=O)NCc1ccc(-c2scnc2C)cc1)C(C)(C)C [VH032] | neither AS1411, VH032, nor AS1411+VH032 can reduce the protein level of MDM2 |  |  |  |  |  |  |  |  |
| COc1ccc(C2=N[C@@H](c3ccc(Cl)cc3)[C@@H](c3ccc(Cl)cc3)N2C(=O)N2CCNC(=O)C2)c(OC(C)C)c1 [nutlin-3a] |  | can cause cell apoptosis |  |  |  |  |  |  |  |
| CRO: cytosine-rich oligonucleotide, negative control, SEQ ID NO: 13 (DNA CCTCCTCCTCCTTCTCCTCCTCCTCC; DNA, backbone and methylation of C not given here; further chemistry not fully specified) |  |  | cannot bind to either NCL or MDM2 | cannot bind to either NCL or MDM2 | cannot capture either NCL or MDM2 | cannot capture either NCL or MDM2 |  |  |  |
| iSN04: oligonucleotide specifically binding to NCL, SEQ ID NO: 14: 5′-AGATTAGGGTGAGGGTGA-3′ (DNA, backbone not given here) |  |  | can only bind to NCL | cannot recruit MDM2 depending on its interaction with NCL | cannot capture MDM2 | can capture NCL only at a high concentration | blocks the binding of NCL to MDM2 | 1000-2000 | No G4 structural characteristics were detected |
